Active and inactive are the calls of the source. No cut-off for these calls is given here.
Tests used:
[1] = Displacement of [3H]-ifenprodil from GluN1a/GluN2B (unknown origin) expressed in mouse L(tk-) cell membranes after 120 mins by scintillation counting analysis; design: species or system Homo sapiens
[2] = biological target: Sigma non-opioid intracellular receptor 1 (Cavia porcellus, UniProt Q60492); test: Displacement of [3H](+)-pentazocine from S1R in guinea pig brain cortex membranes after 120 mins by scintillation counting assay; type: cell membranes
[3] = Selectivity ratio of Ki for S2R in rat liver membranes to Ki for S1R in guinea pig brain cortex membranes; type: cell membranes
[4] = biological target: T1, Sigma intracellular receptor 2 (Rattus norvegicus, UniProt Q5U3Y7); test: Displacement of [3H]-DTG from S2R in rat liver membranes after 120 mins by scintillation counting assay; type: cell membranes, Membrane
T1 sequence (Q5U3Y7 whole entry): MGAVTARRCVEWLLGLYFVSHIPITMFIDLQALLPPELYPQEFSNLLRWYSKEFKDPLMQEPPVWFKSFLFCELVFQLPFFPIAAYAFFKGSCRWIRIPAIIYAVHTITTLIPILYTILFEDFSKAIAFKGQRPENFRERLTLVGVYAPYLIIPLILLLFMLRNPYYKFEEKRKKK

in vitro [5] = details: human, SH-SY5Y cells
Description: Cytotoxicity against human SH-SY5Y cells assessed as cell viability at 10 uM after 48 hrs by MTS assay relative to control

SH-SY5Y [6] = test: Cytotoxicity against human SH-SY5Y cells assessed as reduction in cell viability after 48 hrs by MTS assay; type: cell-based; details: human, sh-sy5y
in vitro [7] = details: human, SH-SY5Y cells; remark: listed apart in the source
[8] = Antioxidant activity assessed as DPPH free radical scavenging at 465 uM after 20 mins by UV-Vis spectrophotometric analysis relative to control; type: functional
in vitro [9] = details: human, SH-SY5Y cells; remark: listed apart in the source
Description: Cytotoxicity against human SH-SY5Y cells assessed as cell viability at 50 uM after 48 hrs by MTS assay relative to control

in vitro [10] = details: human, SH-SY5Y cells; remark: listed apart in the source
Description: Cytotoxicity against human SH-SY5Y cells assessed as cell viability at 10 uM after 24 hrs by MTS assay relative to control

in vitro [11] = details: human, SH-SY5Y cells; remark: listed apart in the source
in vitro [12] = details: human, SH-SY5Y cells; remark: listed apart in the source
Description: Cytotoxicity against human SH-SY5Y cells assessed as cell viability at 50 uM after 24 hrs by MTS assay relative to control

Acetylcholinesterase = Acetylcholinesterase (Electrophorus electricus, UniProt O42275); test: Inhibition of electric eel AChE using acetylthiocholine iodide as substrate preincubated for 5 mins followed by substrate addition and measured after 2 mins by Ellman's method
SH-SY5Y [13] = test: Cytotoxicity against human SH-SY5Y cells assessed as reduction in cell viability after 24 hrs by MTS assay; type: cell-based; details: human, sh-sy5y
SH-SY5Y [14] = test: Neuroprotection against H2O2-induced oxidative stress in human SH-SY5Y cells assessed as reduction in ROS generation at 10 uM preincubated for 3 hrs followed by DCFDA addition for 45 mins and subsequent co-treatment with compound and H2O2 for 24 hrs by fluorescence assay relative to control; type: functional

Chain of Sigma non-opioid intracellular receptor 1 (Q60492 whole entry): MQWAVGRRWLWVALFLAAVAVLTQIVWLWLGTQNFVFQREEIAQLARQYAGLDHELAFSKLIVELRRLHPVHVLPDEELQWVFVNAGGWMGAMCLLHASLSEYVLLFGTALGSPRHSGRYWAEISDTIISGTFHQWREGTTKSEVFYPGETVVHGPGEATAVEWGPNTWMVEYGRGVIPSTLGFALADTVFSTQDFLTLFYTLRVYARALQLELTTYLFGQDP
Chain of Acetylcholinesterase (O42275 whole entry): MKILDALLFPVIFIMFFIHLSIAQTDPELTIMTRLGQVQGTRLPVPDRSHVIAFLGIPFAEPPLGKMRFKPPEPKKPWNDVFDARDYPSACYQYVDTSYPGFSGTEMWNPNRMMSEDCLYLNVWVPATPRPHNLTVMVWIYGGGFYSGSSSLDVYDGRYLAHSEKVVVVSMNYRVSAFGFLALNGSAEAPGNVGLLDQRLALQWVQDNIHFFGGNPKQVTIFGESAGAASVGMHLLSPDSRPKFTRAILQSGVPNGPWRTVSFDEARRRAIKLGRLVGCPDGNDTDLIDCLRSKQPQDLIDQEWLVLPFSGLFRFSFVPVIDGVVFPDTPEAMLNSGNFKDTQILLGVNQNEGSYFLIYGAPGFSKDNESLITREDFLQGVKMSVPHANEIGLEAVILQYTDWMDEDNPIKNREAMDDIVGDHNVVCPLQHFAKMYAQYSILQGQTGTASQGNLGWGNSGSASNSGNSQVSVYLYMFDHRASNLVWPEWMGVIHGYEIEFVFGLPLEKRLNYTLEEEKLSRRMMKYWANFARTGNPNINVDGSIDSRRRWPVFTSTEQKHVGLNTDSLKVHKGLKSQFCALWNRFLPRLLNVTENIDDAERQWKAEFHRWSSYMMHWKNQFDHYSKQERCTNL

## COc1ccc2cc(C(=O)CN3CCC(Cc4ccccc4)CC3)ccc2c1
[1]
  Ki: > 1000 nM
[2]
  Ki: 286 nM
[3]
  Ratio Ki: 4.9
[4]
  Ki: 1400 nM

## CC(C(O)c1ccc(O)cc1)N1CCC(Cc2ccccc2)CC1 (stereo not given) [IFENPRODIL]
[1]
  Ki: 10 nM

## Cl.O=C(CCCN1CCC(Cc2ccccc2)CC1)c1ccccc1
In vitro [5]
  viability at 48 h, 10 µM: 96%
SH-SY5Y [6]
  Activity: Dose-dependent effect
In vitro [7]
  viability at 24 h, 25 µM: 100%
[1]
  Ki: 39 nM
[2]
  Ki: 9 nM
[8]
  Activity: 29.3%
In vitro [9]
  viability at 48 h, 50 µM: 54%
In vitro [10]
  viability at 24 h, 10 µM: 100%
In vitro [11]
  viability at 48 h, 25 µM: 95%
[3]
  Ratio Ki: 5.2
[4]
  Ki: 47 nM
In vitro [12]
  viability at 24 h, 50 µM: 87%
Acetylcholinesterase
  IC50: 13100 nM
SH-SY5Y [13]
  Activity: Dose-dependent effect

## COc1ccc2cc(C(=O)CCCN3CCC(Cc4ccccc4)CC3)ccc2c1
[1]
  Ki: 20 nM
[2]
  Ki: 68 nM
[3]
  Ratio Ki: 1.6
[4]
  Ki: 107 nM
Acetylcholinesterase
  IC50: 4280 nM

## COc1cccc(C(=O)CCCN2CCC(Cc3ccccc3)CC2)c1.Cl
In vitro [5]
  viability at 48 h, 10 µM: 94.8%
SH-SY5Y [6]
  Activity: Dose-dependent effect
In vitro [7]
  viability at 24 h, 25 µM: 100%
[1]
  Ki: 49 nM
[2]
  Ki: 17 nM
[8]
  Activity: 32%
In vitro [9]
  viability at 48 h, 50 µM: 65%
In vitro [10]
  viability at 24 h, 10 µM: 100%
In vitro [11]
  viability at 48 h, 25 µM: 85.6%
[3]
  Ratio Ki: 2.5
[4]
  Ki: 43 nM
In vitro [12]
  viability at 24 h, 50 µM: 98%
Acetylcholinesterase
  IC50: 7640 nM
SH-SY5Y [13]
  Activity: Dose-dependent effect

## Cl.O=C(CCN1CCOCC1)c1ccc(-c2ccccc2)cc1
In vitro [5]
  viability at 48 h, 10 µM: 100%
SH-SY5Y [6]
  Activity: Dose-dependent effect
In vitro [7]
  viability at 24 h, 25 µM: 73%
[1]
  Ki: 723 nM
[8]
  Activity: 22.1%
In vitro [9]
  viability at 48 h, 50 µM: 62.4%
In vitro [10]
  viability at 24 h, 10 µM: 100%
In vitro [11]
  viability at 48 h, 25 µM: 66%
[4]
  Ki: > 1000 nM
In vitro [12]
  viability at 24 h, 50 µM: 83.3%
SH-SY5Y [13]
  Activity: Dose-dependent effect

## Cl.O=C(CCCN1CCC(Cc2ccccc2)CC1)c1ccc2ccccc2c1
In vitro [5]
  viability at 48 h, 10 µM: 77%
SH-SY5Y [6]
  Activity: Dose-dependent effect
In vitro [7]
  viability at 24 h, 25 µM: 86%
[1]
  Ki: 26 nM
[2]
  Ki: 24 nM
[8]
  Activity: 31.6%
In vitro [9]
  viability at 48 h, 50 µM: 61%
In vitro [10]
  viability at 24 h, 10 µM: 80.2%
In vitro [11]
  viability at 48 h, 25 µM: 57%
[3]
  Ratio Ki: 2.4
[4]
  Ki: 58 nM
In vitro [12]
  viability at 24 h, 50 µM: 86%
SH-SY5Y [13]
  Activity: Dose-dependent effect

## COc1ccc(C(=O)CCCN2CCC(Cc3ccccc3)CC2)cc1.Cl
In vitro [5]
  viability at 48 h, 10 µM: 97.3%
SH-SY5Y [6]
  Activity: Dose-dependent effect
In vitro [7]
  viability at 24 h, 25 µM: 100%
[1]
  Ki: 96 nM
[2]
  Ki: 31 nM
[8]
  Activity: 12.9%
In vitro [9]
  viability at 48 h, 50 µM: 61%
In vitro [10]
  viability at 24 h, 10 µM: 100%
In vitro [11]
  viability at 48 h, 25 µM: 87%
[3]
  Ratio Ki: 6.8
[4]
  Ki: 111 nM
In vitro [12]
  viability at 24 h, 50 µM: 84.4%
Acetylcholinesterase
  IC50: 12800 nM
SH-SY5Y [13]
  Activity: Dose-dependent effect

## Cl.O=C(CCN1CCOCC1)c1ccc2ccccc2c1
In vitro [5]
  viability at 48 h, 10 µM: 79%
SH-SY5Y [6]
  Activity: Dose-dependent effect
In vitro [7]
  viability at 24 h, 25 µM: 48%
[1]
  Ki: > 1000 nM
[8]
  Activity: 8.14%
In vitro [9]
  viability at 48 h, 50 µM: 37%
In vitro [10]
  viability at 24 h, 10 µM: 77%
In vitro [11]
  viability at 48 h, 25 µM: 38%
[4]
  Ki: > 1000 nM
In vitro [12]
  viability at 24 h, 50 µM: 49%
SH-SY5Y [13]
  Activity: Dose-dependent effect

## COc1ccc(C(=O)CCN2CCCCC2)cc1.Cl
In vitro [5]
  viability at 48 h, 10 µM: 104%
SH-SY5Y [6]
  Activity: Dose-dependent effect
In vitro [7]
  viability at 24 h, 25 µM: 86%
[1]
  Ki: 1700 nM
[2]
  Ki: 7.9 nM
[8]
  Activity: 14.4%
In vitro [9]
  viability at 48 h, 50 µM: 43.4%
In vitro [10]
  viability at 24 h, 10 µM: 119%
In vitro [11]
  viability at 48 h, 25 µM: 49.4%
[3]
  Ratio Ki: 256
[4]
  Ki: 2100 nM
In vitro [12]
  viability at 24 h, 50 µM: 63%
SH-SY5Y [13]
  Activity: Dose-dependent effect

## O=C(CN1CCC(Cc2ccccc2)CC1)c1ccccc1
[1]
  Ki: 215 nM
[2]
  Ki: 75 nM
[3]
  Ratio Ki: 30.7
[4]
  Ki: 2300 nM

## COc1ccc(C(=O)CCN2CCOCC2)cc1
[1]
  Ki: > 1000 nM
[2]
  Ki: 301 nM
[4]
  Ki: > 1000 nM

## O=C(CCN1CCCCC1)c1ccccc1
[1]
  Ki: > 1000 nM
[2]
  Ki: 171 nM
[3]
  Ratio Ki: 4.4
[4]
  Ki: 749 nM

## O=C(CCN1CCC(Cc2ccccc2)CC1)c1ccc2ccccc2c1
[1]
  Ki: > 1000 nM
[2]
  Ki: 211 nM
[3]
  Ratio Ki: 29.4
[4]
  Ki: 6200 nM
Acetylcholinesterase
  IC50: 18600 nM

## C[C@H](CCN1CCCCC1)c1ccc(-c2ccccc2)cc1
In vitro [5]
  viability at 48 h, 10 µM: 84%
In vitro [7]
  viability at 24 h, 25 µM: 100%
[1]
  Ki: > 1000 nM
SH-SY5Y [14]
  Activity: inactive
In vitro [9]
  viability at 48 h, 50 µM: 57.3%
In vitro [10]
  viability at 24 h, 10 µM: 100%
In vitro [11]
  viability at 48 h, 25 µM: 77.1%
[3]
  Ratio Ki: 25
[4]
  Ki: 45 nM
In vitro [12]
  viability at 24 h, 50 µM: 86%

## O=C(CCN1CCOCC1)c1ccccc1
[1]
  Ki: > 1000 nM
[2]
  Ki: 606 nM
[4]
  Ki: > 1000 nM

## O=C(CCN1CCC(Cc2ccccc2)CC1)c1ccc(-c2ccccc2)cc1
[1]
  Ki: > 1000 nM
[2]
  Ki: 167 nM
[3]
  Ratio Ki: 23.4
[4]
  Ki: 3900 nM

## Cl.O=C(CCN1CCCCC1)c1ccc2ccccc2c1
In vitro [5]
  viability at 48 h, 10 µM: 70.3%
SH-SY5Y [6]
  Activity: Dose-dependent effect
In vitro [7]
  viability at 24 h, 25 µM: 66.4%
[1]
  Ki: > 1000 nM
[8]
  Activity: 18.3%
In vitro [9]
  viability at 48 h, 50 µM: 40%
In vitro [10]
  viability at 24 h, 10 µM: 98.6%
In vitro [11]
  viability at 48 h, 25 µM: 42%
[3]
  Ratio Ki: 81
[4]
  Ki: 178 nM
In vitro [12]
  viability at 24 h, 50 µM: 65.4%
SH-SY5Y [13]
  Activity: Dose-dependent effect

## O=C(CN1CCC(Cc2ccccc2)CC1)c1ccc(-c2ccccc2)cc1
[1]
  Ki: > 1000 nM
[4]
  Ki: > 1000 nM

## Cl.O=C(CCN1CCC(Cc2ccccc2)CC1)c1ccccc1
In vitro [5]
  viability at 48 h, 10 µM: 106%
SH-SY5Y [6]
  Activity: Dose-dependent effect
In vitro [7]
  viability at 24 h, 25 µM: 48%
[1]
  Ki: 39 nM
[2]
  Ki: 16 nM
[8]
  Activity: 25.9%
In vitro [9]
  viability at 48 h, 50 µM: 36%
In vitro [10]
  viability at 24 h, 10 µM: 93%
In vitro [11]
  viability at 48 h, 25 µM: 44%
[3]
  Ratio Ki: 363
[4]
  Ki: 5800 nM
In vitro [12]
  viability at 24 h, 50 µM: 49%
SH-SY5Y [13]
  Activity: Dose-dependent effect

## O=C(CCCN1CCC(Cc2ccccc2)CC1)c1ccc(-c2ccccc2)cc1
[1]
  Ki: 96 nM
[2]
  Ki: 135 nM
[3]
  Ratio Ki: 5.2
[4]
  Ki: 704 nM
Acetylcholinesterase
  IC50: 13900 nM

## COc1cccc(C(=O)CN2CCC(Cc3ccccc3)CC2)c1
[1]
  Ki: 11 nM
[2]
  Ki: 131 nM
[3]
  Ratio Ki: 11.5
[4]
  Ki: 1500 nM
Acetylcholinesterase
  IC50: 32800 nM

Reference: ChEMBL document CHEMBL4265931, “Identification of dual Sigma1 receptor modulators/acetylcholinesterase inhibitors with antioxidant and neurotrophic properties, as neuroprotective agents” (Eur J Med Chem, 2018)
